pIC50: −log10 of the molar value. Where a name gives a salt, the structure may show the parent alone.
How the values were obtained:
JEV = assay: IFA of JEV infection with calcium inhibitors on Vero and Huh-7 cells; type: cell-based, Japanese encephalitis virus
JEV RVP [1] = assay: in vitro; settings: African green monkey, SI (selective index, CC50/IC50), Vero cells
JEV RVP [2] = assay: microbe, parasite or virus in culture; settings: Japanese encephalitis virus, Vero; for pIC50: 24 h; for inhibition at 10 µM: read-out: level of inhibition in the primary screen
[3] = Cytotoxicity (CC50) of compounds from the reconfirmation screen; type: cell-based; settings: African green monkey, Vero cells; 50% cytotoxic concentration
ZIKV = ZIKV infection of Vero cells (viral titer, RNA, IFA); type: cell-based, Zika virus; settings: 48 h; for ZIKV plaque formation: 10 μM, Vero cells
YFV = type: cell-based, yellow fever virus
[4] = test system: JEV NS4B Q130 mutant viruses; type: cell-based, Japanese encephalitis virus
JEV strain AT31 [5] = assay: qRT-PCR quantification of JEV RNA in cell lysates; settings: high-, middle- and low-dose groups, 24 h
JEV strain AT31 [6] = settings: mouse, in vivo
DENV-2 replicon = DENV-2 replicon luciferase assay in BHK-21 cells; type: cell-based, dengue virus type 2; settings: 72 h
Protocol: FIG 4 Broad-spectrum antiviral activity of the hit drugs against flaviviruses. […] The hit drugs were added to the cells at 1 h preinfection and were present throughout the experiment. At 48 h postinfection, the cell culture supernatants were subjected to a viral titer assay (top left), while cell lysates were assessed for viral RNA quantification (top right), and duplicate cells were analyzed by IFA for E protein (green) expression (bottom). Nuclei (blue) were stained with DAPI (4′,6-diamidino-2-phenylindole). (B and C) BHK-21 cells transfected with the WNV or DENV-2 replicon were treated with the hit drugs at the indicated concentrations, and luciferase activities were determined 48 h or 72 h later.
To ensure the effectiveness of the hit drugs in flavivirus replication, BHK-21 cells transfected with the JEV, WNV, or DENV-2 replicon were incubated with each drug at the concentrations indicated above, and the luciferase activities were determined 24 h, 48 h, or 72 h later, respectively.

JEV RVP [7] = settings: Vero cells

## CC(=O)OCOC(=O)CN(CC(=O)OCOC(C)=O)c1ccccc1OCCOc1ccccc1N(CC(=O)OCOC(C)=O)CC(=O)OCOC(C)=O [BAPTA-AM, 1,2-bis-(o-aminophenoxy)-ethane-N,N,N′,N′-tetraacetic acid, tetraacetoxymethyl ester]
JEV
  inhibition of JEV infection (IFA, prM-positive cells vs DMSO control): suppress JEV infection

## COC(=O)C1=C(C)NC(C)=C(C(=O)OC2CCCN(Cc3ccccc3)C2)C1c1cccc([N+](=O)[O-])c1 (stereo not drawn) [Benidipine hydrochloride]
JEV RVP [1]
  selectivity ratio: 15
JEV RVP [2]
  pIC50: 5.43
[3]
  CC50: 55.9 µM

## Clc1ccc(CCC(Cn2ccnc2)Sc2c(Cl)cccc2Cl)cc1 (stereo not drawn) [Butoconazole Nitrate]
JEV RVP [1]
  selectivity ratio: 4
JEV RVP [2]
  pIC50: 5.40
[3]
  CC50: 15.7 µM

## COCCOC(=O)C1=C(C)NC(C)=C(C(=O)OC/C=C/c2ccccc2)C1c1cccc([N+](=O)[O-])c1 (stereo not drawn) [Cilnidipine]
JEV RVP [1]
  selectivity ratio: > 28.6
ZIKV
  ZIKV plaque formation: no plaque formation
JEV RVP [2]
  pIC50: 5.46
[3]
  CC50: > 100 µM

## CCOC(=O)C1=C(C)NC(C)=C(C(=O)OCC)C1c1ccccc1/C=C/C(=O)OC(C)(C)C [Lacidipine]
JEV RVP [1]
  selectivity ratio: 4
JEV RVP [2]
  pIC50: 5.46
[3]
  CC50: 14.1 µM

## COC(=O)C1=C(C)NC(C)=C(C(=O)OCCN2CCN(C(c3ccccc3)c3ccccc3)CC2)C1c1cccc([N+](=O)[O-])c1 (stereo not drawn) [Manidipine]
JEV RVP [1]
  selectivity ratio: > 62.5
YFV
  sensitivity of YFV to the drug: resistance
ZIKV
  ZIKV plaque formation: no plaque formation
ZIKV; Zika virus, Vero, read-out: inhibition of ZIKV viral replication, translation, and viral yields
  inhibition at 5 µM: 95%
JEV RVP [2]
  pIC50: 5.80
[4]
  decrease of viral titer, Q130A mutant JEV: higher than 2 log-unit
  decrease of viral titer, Q130K mutant JEV: less than 2 log units
  decrease of viral titer, Q130R mutant JEV: less than 2 log units
  reduction of viral yields, WT JEV: approximately 4 log units
  resistance of Q130E mutant JEV to the drug: no resistance
JEV strain AT31 [5]
  attenuation of JEV RNA levels (inhibitory effect vs control): at least 80%
[3]
  CC50: > 100 µM
JEV strain AT31 [6]
  effect on peripheral JEV infection (serum and spleen viral loads): little effect
  histopathological changes in brain (meningitis, perivascular cuffing, vacuolar degeneration, glial nodules): remarkably alleviated
JEV strain AT31 [6]; ip, 25 mg/kg
  abnormal behavior of treated mice: little abnormal behavior
  animals survived: 12 out of 15
  mortality rate: 20%

## Clc1ccc(C(c2ccccc2Cl)C(Cl)Cl)cc1 (stereo not drawn) [Mitotane]
JEV RVP [1]
  selectivity ratio: 3.9
JEV RVP [2]
  pIC50: 5.18
[3]
  CC50: 25.9 µM

## Cc1c(O)cccc1C(=O)N[C@@H](CSc1ccccc1)[C@H](O)CN1C[C@H]2CCCC[C@H]2C[C@H]1C(=O)NC(C)(C)C [Nelfinavir Mesylate]
JEV RVP [1]
  selectivity ratio: 16.8
DENV-2 replicon
  level of DENV-2 replication (replicon luciferase): no effect at the concentrations tested
JEV RVP [2]
  pIC50: 5.80
[3]
  CC50: 27.1 µM

## CC[C@@H]1/C=C(\C)C[C@H](C)C[C@H](OC)[C@H]2O[C@@](O)(C(=O)C(=O)N3CCCC[C@H]3C(=O)O[C@H](/C(C)=C/[C@@H]3CC[C@H](Cl)[C@H](OC)C3)[C@H](C)[C@@H](O)CC1=O)[C@H](C)C[C@@H]2OC [Pimecrolimus]
JEV RVP [1]
  selectivity ratio: > 32.3
JEV RVP [2]
  pIC50: 5.51
JEV RVP [7]
  SI (selective index, CC50/IC50): > 32
[3]
  CC50: > 100 µM

## COc1ccc(CCN(C)CCCC(C#N)(c2ccc(OC)c(OC)c2)C(C)C)cc1OC (stereo not drawn) [Verapamil]
JEV
  inhibition of JEV infection (IFA, prM-positive cells vs DMSO control): dose-dependent inhibition

## CCOC(=O)C1=C(C)NC(C)=C(C(=O)OC)C1c1cccc(Cl)c1Cl (stereo not drawn) [felodipine]
JEV RVP [2]
  inhibition at 10 µM: 72%

## Fc1ccc(C(c2ccc(F)cc2)N2CCN(C/C=C/c3ccccc3)CC2)cc1 [flunarizine dihydrochloride]
JEV RVP [2]
  inhibition at 10 µM: > 90%

## COc1ccc(CN2CCN(C(c3ccc(F)cc3)c3ccc(F)cc3)CC2)c(OC)c1OC.Cl.Cl [lomerizine hydrochloride]
JEV RVP [7]; 10 μM compound
  level of inhibition in the primary screen: > 90%

## COC(=O)C1=C(C)NC(C)=C(C(=O)OCCN(C)Cc2ccccc2)C1c1cccc([N+](=O)[O-])c1 (stereo not drawn) [nicardipine hydrochloride]
JEV RVP [2]
  inhibition at 10 µM: 66%

## COC(=O)C1=C(C)NC(C)=C(C(=O)OCC(C)C)C1c1ccccc1[N+](=O)[O-] (stereo not drawn) [nisoldipine]
JEV RVP [2]
  inhibition at 10 µM: 75%
